Results taken from paper PMC3892053, “Pharmacokinetic/pharmacodynamic modeling for the determination of a cimicoxib dosing regimen in the dog” (BMC Veterinary Research, 2013).
Converted amounts (≈) assume the structure as drawn. Like-named read-outs stand apart in the source and are kept apart here.

How the values were obtained:
[1] = system: kaolin-induced paw inflammation; experiment: Simulation of dose-effect relationship with the PK/PD model (EM dog parameters); conditions: simulated, oral, dose-linearity assumed
Description: For higher cimicoxib doses, only the duration of the maximum effect was increased. […] Figure 6 Simulated values of the effects of the cimicoxib for different oral doses of cimicoxib for the 4 endpoints modeled using a PK/PD model in the 8 extensive metabolizer dogs. Effects of cimicoxib vs. time (h) were simulated using the corresponding PK/PD model for different oral doses of cimicoxib (from 0.1 to 8 mg/kg) on the rectal temperature (°C), the normalized vertical ground reaction force of the paw, the creeping speed (m/s) and the overall clinical lameness score. PK and PD parameters used for simulations were the means of those obtained in the 8 extensive metabolizer dogs. The thick line was obtained with 2 mg/kg, the dose that has been selected for confirmatory clinical trials.

[2] = system: kaolin-induced paw inflammation; experiment: PK/PD modelling (indirect response models) of kaolin paw inflammation endpoints; assay type: in vivo, dog; conditions: for EC50 at 2 mg/kg / IC50 at 2 mg/kg: po; for EC50 at 2 mg/kg: read-out: EC50, body temperature
Description: Pharmacokinetic and PK/PD modeling were performed by least-squares regression analysis using WinNonlin Professional software (WinNonlin® software, version 4.0.1, Pharsight Corporation, Mountain View, Ca, USA). For PK analysis, individual plasma cimicoxib concentrations were fitted to polyexponential equations. The data points were weighted by the inverse of the squared-fitted value. The number of exponential (2 or 3) terms needed to obtain the best fit for each data set was determined by the Akaike’s information criteria and by inspecting the plot of residuals. A biexponential equation corresponding to a mono-compartmental model for extravascular administration with a lag-time was selected (Equation 1).
As the effect cimicoxib on the local temperature and paw oedema after inflammation were present but lower than the other effects, these endpoints were not used for the PK/PD analysis. […] Finally, four endpoints were considered as suitable for the PK/PD analysis aiming at modelling the relationship between cimicoxib plasma concentrations and its antipyretic and anti-inflammatory effects, namely: body temperature (antipyretic effect), creeping speed, vertical force of the paw and clinical lameness score (anti-inflammatory effects).
The selected PK/PD models were of the class of the indirect response models as proposed by Dayneka. In these models, the measured response (R) is assumed to result from factors controlling either the development (Kin) or the dissipation (Kout) of the response according to Equation 3.
where dR/dt is the rate of change of the response over time, Kin represents the zero-order rate constant for production of the response and Kout the first-order rate constant for loss of the response. The time development of measured response was modeled by a sigmoid-Emax (maximum stimulatory effect) or sigmoid-Imax (maximum inhibition effect) function (Hill models) that can be exerted either on Kin or Kout. […] The effect of cimicoxib on the central temperature was based on a model assuming that during the inflammation phase, thermogenesis is increased (increase in Kin) while thermolysis is reduced (reduction in Kout) until a new balance for central temperature is reached. The antipyretic effect of an NSAID consisted of an increase in thermolysis (increase of Kout) enabling the central temperature to return to its control values, according to Equation 4:
(4) dR/dT=Kin-Kout×1+Emax×C^n/EC50^n+C^n×R
For the creeping test consisting of crossing the tunnel more or less rapidly, an empirical model postulating that the dog’s speed (m.s^-1) is the result of a balance between its motivation to move forward (Kin) and a braking effect (Kout) associated with the severity of inflammation with a lower Kout in control conditions than during inflammation. During inflammation, pain increases the braking effect (i.e. increase Kout) and decreases the speed to cross the tunnel. The anti-inflammatory effect of cimicoxib consisted in reducing the pain (by decreasing Kout), which in turn increased the speed to cross the tunnel as described by Equation 5:
(5) dR/dT=Kin-Kout×1-Imax×C^n/IC50^n+C^n×R
For the vertical force measured with the force plate apparatus normalized by the weight of the dog (without units), Kin represents the ground reaction forces in control resting conditions and Kout represents the factors prompting the withdrawal of limb from the ground in the case of inflammation due to pain i.e. that Kout is increased in the case of inflammation. Thus, the anti-inflammatory effect of cimicoxib consisted in a reduction of pain (decrease of Kout) and the same model as for the creeping speed under the tunnel was used (see Equation 5).
During inflammation, Kin is increased and the effect of cimicoxib was modelled using a concentration-dependent inhibition of Kin, according to Equation 6:
(6) dR/dT=Kin×1-C^n/IC50^n+C^n-Kout×R

[3] = plasma concentration, oral 2 mg/kg, PM dogs, mean and range, 2 mg/kg

For `COc1ccc(-c2c(Cl)ncn2-c2ccc(S(N)(=O)=O)cc2)cc1F` [cimicoxib], the “dose predicted to give a nearly maximal effect, creeping speed” value [1] was 1.5 mg/kg, the “dose predicted to give a nearly maximal effect, ground reaction vertical force” value [1] was 3 mg/kg and the “dose predicted to give a nearly maximal effect, overall clinical lameness score” value [1] was 2 mg/kg. For the same compound, the “dose predicted to give a nearly maximal effect, rectal temperature” value [1] was 1 mg/kg, the EC50 ([2]; Canis lupus familiaris, abstract, value matches EM dogs, read-out: plasma concentration corresponding to half the maximum of the indirect effect, body temperature) was 0.193 µg/mL (≈ 0.505 µM) and the IC50 ([2]; Canis lupus familiaris, abstract, value matches EM dogs, read-out: plasma concentration corresponding to half the maximum of the indirect effect, creeping speed) was 0.239 µg/mL (≈ 0.626 µM). The IC50 ([2]; Canis lupus familiaris, abstract, value matches EM dogs, read-out: plasma concentration corresponding to half the maximum of the indirect effect, ground reaction vertical force) was 0.161 µg/mL (≈ 0.422 µM), the IC50 ([2]; Canis lupus familiaris, abstract, value matches EM dogs, read-out: plasma concentration corresponding to half the maximum of the indirect effect, lameness score) was 0.284 µg/mL (≈ 0.744 µM) and the EC50 at 2 mg/kg ([2]; Canis lupus familiaris, plasma concentration, oral 2 mg/kg, EM dogs, mean and range) was 0.193 µg/mL (≈ 0.506 µM). The IC50 at 2 mg/kg ([2]; Canis lupus familiaris, plasma concentration, oral 2 mg/kg, EM dogs, mean and range, read-out: IC50, creeping speed) was 0.239 µg/mL (≈ 0.627 µM), the IC50 at 2 mg/kg ([2]; Canis lupus familiaris, plasma concentration, oral 2 mg/kg, EM dogs, mean and range, read-out: IC50, lameness score) was 0.284 µg/mL (≈ 0.745 µM) and the IC50 at 2 mg/kg ([2]; Canis lupus familiaris, plasma concentration, oral 2 mg/kg, EM dogs, mean and range, read-out: IC50, vertical force) was 0.161 µg/mL (≈ 0.421 µM). It also gave an EC50 at 2 mg/kg ([2]; Canis lupus familiaris, plasma concentration, oral 2 mg/kg, PM dogs, mean and range) of 0.473 µg/mL (≈ 1.24 µM), an IC50 at 2 mg/kg ([2]; Canis lupus familiaris, plasma concentration, oral 2 mg/kg, PM dogs, mean and range, read-out: IC50, creeping speed) of 0.345 µg/mL (≈ 0.902 µM) and an IC50 at 2 mg/kg ([2]; Canis lupus familiaris, plasma concentration, oral 2 mg/kg, PM dogs, mean and range, read-out: IC50, lameness score) of 0.786 µg/mL (≈ 2.06 µM). The IC50 at 2 mg/kg ([2]; Canis lupus familiaris, plasma concentration, oral 2 mg/kg, PM dogs, mean and range, read-out: IC50, vertical force) was 0.325 µg/mL (≈ 0.851 µM), the “Emax, body temperature” value ([2]; EM dogs, mean and range) was 0.04 [0.03, 0.06] no unit and the “Imax, creeping speed” value ([2]; EM dogs, mean and range) was 0.71 [0.38, 1.00] no unit. The “Imax, vertical force” value ([2]; EM dogs, mean and range) was 0.98 [0.93, 1.00] no unit, the “Kin, body temperature” value ([2]; EM dogs, mean and range) was 41.30 [20.76, 84.13] °C.h^-1 and the “Kin, creeping speed” value ([2]; EM dogs, mean and range) was 0.90 [0.15, 2.71] m.s^-1.h^-1. For the same compound, the “Kin, lameness score” value ([2]; EM dogs, mean and range) was 5.34 [1.17, 16.87] score.h^-1, the “Kin, vertical force” value ([2]; EM dogs, mean and range) was 0.09 [0.06, 0.10] normalised force.h^-1 and the “Kout, body temperature” value ([2]; EM dogs, mean and range) was 1.04 [0.53, 2.10] h^-1. The “Kout, creeping speed” value ([2]; EM dogs, mean and range) was 0.95 [0.24, 2.02] h^-1, the “Kout, lameness score” value ([2]; EM dogs, mean and range) was 1.08 [0.22, 3.54] h^-1 and the “Kout, vertical force” value ([2]; EM dogs, mean and range) was 7.40 [3.21, 10.00] h^-1. For the same compound, the “Emax, body temperature” value ([2]; PM dogs, mean and range) was 0.04 [0.03, 0.04] no unit, the “Imax, creeping speed” value ([2]; PM dogs, mean and range) was 0.70 [0.44, 0.87] no unit and the “Imax, vertical force” value ([2]; PM dogs, mean and range) was 0.97 [0.95, 0.99] no unit. For the same compound, the “Kin, body temperature” value ([2]; PM dogs, mean and range) was 45.84 [42.76, 49.19] °C.h^-1, the “Kin, creeping speed” value ([2]; PM dogs, mean and range) was 0.76 [0.36, 0.97] m.s^-1.h^-1 and the “Kin, lameness score” value ([2]; PM dogs, mean and range) was 2.57 [0.70, 4.96] score.h^-1. The “Kin, vertical force” value ([2]; PM dogs, mean and range) was 0.09 [0.07, 0.10] normalised force.h^-1, the “Kout, body temperature” value ([2]; PM dogs, mean and range) was 1.17 [1.09, 1.25] h^-1 and the “Kout, creeping speed” value ([2]; PM dogs, mean and range) was 1.07 [0.80, 1.47] h^-1. The “Kout, lameness score” value ([2]; PM dogs, mean and range) was 0.509 [0.14, 0.99] h^-1, the “Kout, vertical force” value ([2]; PM dogs, mean and range) was 8.47 [5.09, 9.99] h^-1 and the “IC50, lameness score” value [2, 3] was 785.8 [579.4, 916.1] ng/mL. For the same compound, the “IC50, vertical force” value [2, 3] was 325.1 [235.3, 397.6] ng/mL.
